Results from US6737383B1, “Herbicidal oxadiazolidines” (priority 1999, dated 2004).

How the values were obtained:
[1] = test system: cocklebur; experiment: Test B pre/postemergence cocklebur; format: in vivo, Xanthium strumarium; settings: for Cocklebur plant response rating: Postemergence; for Plant response rating, Cocklebur: Preemergence
Procedure, shortened: (§1)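 Response is a visual 0-to-10 score relative to untreated plants, where 0 means no effect and 10 means complete control, taken twelve to sixteen days after application. Treatments went onto soil at planting and onto foliage of 1- to 4-leaf plants, using a surfactant-containing non-phytotoxic solvent.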

[2] = test system: corn; experiment: Test B pre/postemergence corn; format: in vivo, Zea mays
Procedure, shortened: as §1

[3] = test system: crabgrass; experiment: Test B pre/postemergence crabgrass; format: in vivo, Digitaria sanguinalis
Procedure, shortened: as §1

[4] = test system: giant foxtail; experiment: Test B pre/postemergence giant foxtail; format: in vivo, Setaria faberii
Procedure, shortened: as §1

[5] = test system: morningglory; experiment: Test B pre/postemergence morningglory; format: in vivo, Ipomoea hederacea
Procedure, shortened: as §1

[6] = test system: pigweed; experiment: Test B pre/postemergence pigweed; format: in vivo, Amaranthus retroflexus
Procedure, shortened: as §1

[7] = test system: rape; experiment: Test B pre/postemergence rape; format: in vivo, Brassica napus
Procedure, shortened: as §1

[8] = test system: soybean; experiment: Test B pre/postemergence soybean; format: in vivo, Glycine max
Procedure, shortened: as §1

[9] = test system: sugar beet; experiment: Test B pre/postemergence sugar beet; format: in vivo, Beta vulgaris
Procedure, shortened: as §1

[10] = test system: velvetleaf; experiment: Test B pre/postemergence velvetleaf; format: in vivo, Abutilon theophrasti
Procedure, shortened: as §1

[11] = test system: wheat; experiment: Test B pre/postemergence wheat; format: in vivo, Triticum aestivum
Procedure, shortened: as §1

[12] = test system: wild oat; experiment: Test B pre/postemergence wild oat; format: in vivo, Avena fatua
Procedure, shortened: as §1

[13] = test system: purple nutsedge; experiment: Test B pre/postemergence purple nutsedge; format: in vivo, Cyperus rotundus
Procedure, shortened: as §1

[14] = test system: rice; experiment: Test B flood test rice; format: in vivo, Oryza sativa
Procedure, shortened: (§2)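 Flood test on plants grown to the 2-leaf stage; treated plants kept in greenhouse twelve to sixteen days, then visually rated against controls on a 0 (no effect) to 10 (complete control) scale.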

[15] = test system: smallflower flatsedge; experiment: Test B flood test smallflower flatsedge; format: in vivo, Cyperus difformis
Procedure, shortened: as §2

[16] = test system: duck salad; experiment: Test B flood test duck salad; format: in vivo, Heteranthera limosa
Procedure, shortened: as §2

[17] = Rate 62 g/ha, scale 0 to 10, 0 is no effect, 10 is complete control
[18] = Postemergence, Rate 62 g/ha, scale 0 to 10, 0 is no effect, 10 is complete control
[19] = Postemergence, Rate 250 g/ha, scale 0 to 10, 0 no effect, 10 complete control
[20] = Preemergence, Rate 62 g/ha, scale 0 to 10, 0 is no effect, 10 is complete control
[21] = Preemergence, Rate 125 g/ha, scale 0 to 10 (0 no effect, 10 complete control)
[22] = Preemergence, Rate 250 g/ha, scale of 0 to 10 where 0 is no effect and 10 is complete control
[23] = Preemergence, Rate 500 g/ha, scale 0 (no effect) to 10 (complete control)
[24] = Rate 125 g/ha, Postemergence, scale 0 to 10, 0 no effect, 10 complete control
[25] = Rate 500 g/ha, Postemergence, 0 to 10 scale (0 no effect, 10 complete control)
[26] = Rate 125 g/ha, Postemergence section (flood test species), scale 0 to 10, 0 no effect, 10 complete control
[27] = Rate 250 g/ha, headed Pre-emergence (flood test species), scale 0 to 10 (0 no effect, 10 complete control)
[28] = Rate 500 g/ha, Postemergence section of Table B, 0 to 10 scale (0 no effect, 10 complete control)
[29] = Rate 500 g/ha, headed Pre-emergence (flood test species), scale 0 to 10 (0 no effect, 10 complete control)
[30] = Rate 1000 g/ha, Pre-emergence (as headed), scale 0 to 10
[31] = Rate 2000 g/ha, Pre-emergence (as headed), scale 0 to 10
[32] = flood test, listed under Postemergence, Rate 250 g/ha, scale 0 to 10, 0 no effect, 10 complete control

SMILES: Cc1ccccc1-n1c(=O)on(C(=O)N(c2ccccc2)C(C)C)c1=O [Compound 36]
- Cocklebur plant response rating [1, 17]: 0
- Cocklebur plant response rating ([1]; Rate 250 g/ha, scale 0 to 10, 0 no effect, 10 complete control): 0
- Plant response rating, Cocklebur [1, 17]: 0
- Plant response rating, Cocklebur ([1]; Rate 125 g/ha, scale 0 to 10 (0 no effect, 10 complete control)): 0
- Plant response rating, Cocklebur ([1]; Rate 250 g/ha, scale of 0 to 10 where 0 is no effect and 10 is complete control): 0
- Cocklebur plant response rating ([1]; Rate 125 g/ha, scale 0 to 10, 0 no effect, 10 complete control): 0
- Cocklebur plant response rating ([1]; Rate 500 g/ha, 0 to 10 scale (0 no effect, 10 complete control)): 4
- Corn plant response rating [2, 18]: 0
- Corn plant response rating [2, 19]: 0
- Plant response rating, Corn [2, 20]: 0
- Plant response rating, Corn [2, 21]: 0
- Plant response rating, Corn [2, 22]: 0
- Corn plant response rating [2, 23]: 0
- Corn plant response rating [2, 24]: 0
- Corn plant response rating [2, 25]: 0
- Crabgrass plant response rating [3, 18]: 3
- Crabgrass plant response rating [3, 19]: 3
- Plant response rating, Crabgrass [3, 20]: 8
- Plant response rating, Crabgrass [3, 21]: 9
- Plant response rating, Crabgrass [3, 22]: 9
- Crabgrass plant response rating [3, 23]: 10
- Crabgrass plant response rating [3, 24]: 3
- Crabgrass plant response rating [3, 25]: 8
- Giant foxtail plant response rating [4, 18]: 0
- Giant foxtail plant response rating [4, 19]: 3
- Plant response rating, Giant foxtail [4, 20]: 10
- Plant response rating, Giant foxtail [4, 21]: 10
- Plant response rating, Giant foxtail [4, 22]: 10
- Giant foxtail plant response rating [4, 23]: 10
- Giant foxtail plant response rating [4, 24]: 3
- Giant foxtail plant response rating [4, 25]: 3
- Morningglory plant response rating [5, 18]: 4
- Morningglory plant response rating [5, 19]: 9
- Plant response rating, Morningglory [5, 20]: 0
- Plant response rating, Morningglory [5, 21]: 0
- Plant response rating, Morningglory [5, 22]: 0
- Morningglory plant response rating [5, 23]: 0
- Morningglory plant response rating [5, 24]: 9
- Morningglory plant response rating [5, 25]: 9
- Redroot pigweed plant response rating [6, 18]: 2
- Redroot pigweed plant response rating [6, 19]: 7
- Plant response rating, Redroot pigweed [6, 20]: 0
- Plant response rating, Redroot pigweed [6, 21]: 0
- Plant response rating, Redroot pigweed [6, 22]: 6
- Redroot pigweed plant response rating [6, 23]: 7
- Redroot pigweed plant response rating [6, 24]: 5
- Redroot pigweed plant response rating [6, 25]: 7
- Rape plant response rating [7, 18]: 0
- Rape plant response rating [7, 19]: 0
- Plant response rating, Rape [7, 20]: 0
- Plant response rating, Rape [7, 21]: 0
- Plant response rating, Rape [7, 22]: 0
- Rape plant response rating [7, 23]: 3
- Rape plant response rating [7, 24]: 0
- Rape plant response rating [7, 25]: 0
- Soybean plant response rating [8, 18]: 5
- Soybean plant response rating [8, 19]: 5
- Plant response rating, Soybean [8, 20]: 0
- Plant response rating, Soybean [8, 21]: 0
- Plant response rating, Soybean [8, 22]: 0
- Soybean plant response rating [8, 23]: 0
- Soybean plant response rating [8, 24]: 5
- Sugarbeets plant response rating [9, 18]: 0
- Sugarbeets plant response rating [9, 19]: 0
- Plant response rating, Sugarbeets [9, 20]: 0
- Plant response rating, Sugarbeets [9, 21]: 0
- Plant response rating, Sugarbeets [9, 22]: 0
- Sugarbeets plant response rating [9, 23]: 5
- Sugarbeets plant response rating [9, 24]: 0
- Velvetleaf plant response rating [10, 18]: 0
- Velvetleaf plant response rating [10, 19]: 0
- Plant response rating, Velvetleaf [10, 20]: 0
- Plant response rating, Velvetleaf [10, 21]: 0
- Plant response rating, Velvetleaf [10, 22]: 0
- Velvetleaf plant response rating [10, 23]: 0
- Velvetleaf plant response rating [10, 24]: 0
- Wheat plant response rating [11, 18]: 0
- Wheat plant response rating [11, 19]: 0
- Plant response rating, Wheat [11, 20]: 0
- Plant response rating, Wheat [11, 21]: 0
- Plant response rating, Wheat [11, 22]: 0
- Wheat plant response rating [11, 23]: 0
- Wheat plant response rating [11, 24]: 0
- Wild oats plant response rating [12, 18]: 0
- Wild oats plant response rating [12, 19]: 0
- Plant response rating, Wild oats [12, 21]: 2
- Plant response rating, Wild oats [12, 22]: 6
- Wild oats plant response rating [12, 23]: 7
- Wild oats plant response rating [12, 24]: 0
- Nutsedge plant response rating [13, 18]: 0
- Nutsedge plant response rating [13, 19]: 0
- Plant response rating, Nutsedge [13, 20]: 0
- Plant response rating, Nutsedge [13, 21]: 0
- Plant response rating, Nutsedge [13, 22]: 0
- Nutsedge plant response rating [13, 23]: 0
- Nutsedge plant response rating [13, 24]: 0
- Nutsedge plant response rating [13, 25]: 0
- Rice plant response rating [14, 18]: 0
- Rice plant response rating [14, 26]: 0
- Rice plant response rating [14, 27]: 0
- Rice plant response rating [14, 28]: 2
- Plant response rating, Rice [14, 29]: 0
- Rice plant response rating [14, 30]: 0
- Rice plant response rating [14, 31]: 0
- Rice plant response rating [14, 32]: 0
- S. Flatsedge plant response rating [15, 18]: 0
- S. Flatsedge plant response rating ([15]; Pre-emergence, Rate 1000 g/ha, scale 0 to 10 (0 no effect, 10 complete control)): 0
- S. Flatsedge plant response rating [15, 26]: 0
- S. Flatsedge plant response rating [15, 27]: 0
- Plant response rating, S. Flatsedge [15, 29]: 0
- S. Flatsedge plant response rating [15, 31]: 0
- S. Flatsedge plant response rating [15, 32]: 0
- Ducksalad plant response rating [16, 18]: 0
- Ducksalad plant response rating [16, 26]: 0
- Ducksalad plant response rating [16, 27]: 0
- Ducksalad plant response rating [16, 28]: 0
- Plant response rating, Ducksalad [16, 29]: 0
- Ducksalad plant response rating [16, 30]: 0
- Ducksalad plant response rating [16, 31]: 0
- Ducksalad plant response rating [16, 32]: 0
